Drawing on patent US11396517B1, “Exo-aza spiro inhibitors of menin-MLL interaction” (Janssen Pharmaceutica NV, priority 2017, dated 2022), this text covers IC50 for 15 molecules.

Where two headings read alike, the source gives them in different places.

One experiment concerns the target T1, menin (Homo sapiens, UniProt O00255, T541A).
T1 construct: Menin (a.a. 1-610-6×his tag)
T1 sequence (O00255 with tags, fused parts or gaps T541A): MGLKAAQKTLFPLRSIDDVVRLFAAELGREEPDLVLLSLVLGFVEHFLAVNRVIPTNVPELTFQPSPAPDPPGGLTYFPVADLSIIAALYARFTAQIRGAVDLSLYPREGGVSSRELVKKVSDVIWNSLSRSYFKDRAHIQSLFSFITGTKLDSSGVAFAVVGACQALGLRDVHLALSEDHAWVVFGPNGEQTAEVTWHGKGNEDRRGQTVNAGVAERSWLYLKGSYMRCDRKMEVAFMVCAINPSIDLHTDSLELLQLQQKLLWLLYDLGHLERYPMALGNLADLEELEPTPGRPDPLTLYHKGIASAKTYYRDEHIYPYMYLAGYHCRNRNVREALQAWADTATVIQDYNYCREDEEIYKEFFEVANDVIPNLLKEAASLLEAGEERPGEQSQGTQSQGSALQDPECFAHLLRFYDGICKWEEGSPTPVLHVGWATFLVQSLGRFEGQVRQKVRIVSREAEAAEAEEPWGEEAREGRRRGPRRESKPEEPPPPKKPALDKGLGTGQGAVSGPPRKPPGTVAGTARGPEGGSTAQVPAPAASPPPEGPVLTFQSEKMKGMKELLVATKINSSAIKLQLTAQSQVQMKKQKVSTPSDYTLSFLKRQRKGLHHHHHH
The experiment can be described thus: Menin/MLL homogenous time-resolved fluorescence (HTRF) assay. Format: binding. In short, it runs like this: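 Displacement of 75 nM FITC-MBM1 from terbium-cryptate-labeled His-tagged menin 1-610 ([…]) was read as the 520/490 nm HTRF ratio. Compound (11-point, 3-fold series) got 5 min with menin before peptide, then 15 min at ambient; 0.5% DMSO, Tris pH 7.5.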

Experiment [1] concerns MV-4-11. The experiment can be described thus: Proliferation assay A (spheroid assay) MV-4-11. The class given is cell-based, human. The conditions noted are these: MV-4-11 cells, 8 d, AUC of confluence against time, absolute IC50, read-out: (3a) Spheroid assay MV-4-11 (IC50(μM)) Assay A. The procedure:
(§1) 3a) Proliferation Assay A
(§2) The anti-proliferative effect of menin/MLL protein/protein interaction inhibitor test compounds was assessed in human leukemia cell lines. The cell lines MV-4-11 and MOLM14 harbor MILL translocations and express the MILL fusion proteins MLL-AF4 and MLL-AF9, respectively, as well as the wildtype protein from the second allele. […] K562 was used as a control cell line containing two MLL wildtype alleles in order to exclude compounds that display general cytotoxic effects.
(§3) MV-4-11 and MOLM14 were cultured in RPMI-1640 (Sigma Aldrich) supplemented with 10% fetal bovine serum (HyClone), 2 mM L-glutamine (Sigma Aldrich) and 50 μg/ml gentamycin (Gibco). K562 were propagated in RPMI-1640 (Sigma Aldrich) supplemented with 20% fetal bovine serum (HyClone), 2 mM L-glutamine (Sigma Aldrich) and 50 μg/ml gentamycin (Gibco).
(§4) In order to assess the anti-proliferative effects, 1,500 MV-4-11, 300 MOLM14 or 750 K562 cells were seeded in 200 μl media per well in 96-well round bottom, ultra-low attachment plates (Costar, catalogue number 7007). Cell seeding numbers were chosen based on growth curves to ensure linear growth throughout the experiment. Test compounds were added at different concentrations and the DMSO content was normalized to 0.3%. Cells were incubated for 8 d at 37° C. and 5% CO2. Spheroid like growth was monitored in real-time by live-cell imaging (IncuCyteZOOM, Essenbio, 4× objective) acquiring one image every four hours for 8 d. Confluence (%) as a measure of spheroid size was determined using an integrated analysis tool.
(§5) In order to determine the cumulative effect of the test compounds over time, the area under the curve (AUC) in a plot of confluence against time was calculated. Confluence at the beginning of the experiment (t=0) was used as baseline for the AUC calculation.
(§6) Absolute IC50 values were calculated according to the following procedure: % Control=(AUC sample/AUC control)*100
(§7) AUC control mean AUC of control values (cells without compound/DMSO as vehicle control)
(§8) A non-linear curve fit was applied using the least squares (ordinary) fit method to the plot of % control versus compound concentration. Based on this, the absolute IC50 value (half maximal inhibitory concentration of the test compound causing an anti-proliferative effect of 50% relative to the vehicle control) was calculated.

Experiment [2] relates to MOLM14. The experiment can be described thus: Proliferation assay A (spheroid assay) MOLM14. Format: cell-based, human. Conditions: MOLM14 cells, 8 d, AUC of confluence against time, absolute IC50, read-out: (3a) Spheroid assay MOLM14 (IC50(μM)) Assay A. The procedure:
as §1, §2, §3, §4, §5, §6, §7, §8

The test system of experiment [3] is MV-4-11. The experiment can be described thus: Proliferation assay B (spheroid assay) MV-4-11. The class given is cell-based, human. The conditions noted are these: Homo sapiens, MV4-11, 192 h, MV-4-11 cells, confluence at day 8, absolute IC50; read-out: (3b) Spheroid assay MV-4--11 (IC50(μM)) Assay B. In a few lines:
(§9)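 IC50 derived from % effect on day-8 imaged confluence, scaled between DMSO-treated cells (high) and 1 μM staurosporine (low), using a variable-slope fit constrained 0-100%. Cells seeded as spheroids in ultra-low-attachment plates and exposed to compound for 8 days, 0.3% DMSO.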

The test system of experiment [4] is MOLM14. In words: Proliferation assay B (spheroid assay) MOLM14. The class given is cell-based, human. Conditions: Homo sapiens, MOLM-14, 192 h, MOLM14 cells, confluence at day 8, absolute IC50; read-out: (3b) Spheroid assay MOLM14 (IC50(μM)) Assay B. In short, it runs like this: as §9
The mark [5] stands for this setting: location 2, read-out: (2) location 2 Menin HTRF assay (IC50 (nM)).

As for `N#CCc1ccc(NC2CC3(CCN(c4ncnc5sc(CC(F)(F)F)cc45)C3)C2)cc1F` (mixture of isomers) [Compound 168], the IC50 (in general, the midpoint of a concentration-inhibition curve) on menin (setting [5]) was determined as 20.8 nM; in the experiment with MV-4-11 [1] (Homo sapiens, MV4-11, 192 h) it was 1.65 µM; in the experiment with MOLM14 [2] (Homo sapiens, MOLM-14, 192 h), 2.52 µM.

Regarding `FC(F)(F)Cc1cc2c(N3CCC4(CC(Nc5ccc6cc(C(F)(F)F)[nH]c6c5)C4)C3)ncnc2s1` (mixture of isomers) [Compound 314], the IC50 is 27.1 nM on menin (setting [5]); 3.83 µM with MV-4-11 [1] (Homo sapiens, MV4-11, 192 h); greater than 3.75 µM in the experiment with MOLM14 [2] (Homo sapiens, MOLM-14, 192 h).

As to `O=c1[nH]c2ccc(NC3CC4(CCN(c5ncnc6sc(CC(F)(F)F)cc56)C4)C3)cc2o1` (mixture of isomers) [Compound 322], the IC50 was 51.4 nM on menin (setting [5]); greater than 3.75 µM in the experiment on MV-4-11 [1] (Homo sapiens, MV4-11, 192 h); greater than 3.75 µM with MV-4-11 [3]; greater than 3.75 µM in the experiment with MOLM14 [4].

With `CNc1nc(N2CCC3(CC(Nc4ccc(CC#N)cc4)C3)C2)c2cc(CC(F)(F)F)sc2n1` (mixture of isomers) [Compound 390], the half-inhibitory concentration (IC50) on menin (setting [5]) is 14.6 nM; with MV-4-11 [1] (Homo sapiens, MV4-11, 192 h) it was 2.84 µM; with MOLM14 [2] (Homo sapiens, MOLM-14, 192 h) it was greater than 3.75 µM.

Regarding `N#CCc1ccc(NC2CCC3(C2)CN(c2ncnc4sc(CC(F)(F)F)cc24)C3)cc1` (racemic) [Compound 278], the concentration for half-maximal inhibition (IC50) was 22.8 nM at menin (setting [5]); greater than 3.75 µM in the experiment with MV-4-11 [1] (Homo sapiens, MV4-11, 192 h); greater than 3.75 µM with MOLM14 [2] (Homo sapiens, MOLM-14, 192 h).

`N#CCc1ccc(NC2CCC3(C2)CN(c2nc(N)nc4sc(CC(F)(F)F)cc24)C3)cc1` (racemic) [Compound 387]: the half-maximal inhibitory concentration (IC50) at menin (setting [5]) was 94.2 nM; in the experiment with MV-4-11 [1] (Homo sapiens, MV4-11, 192 h), greater than 3.75 µM; with MV-4-11 [3], greater than 3.75 µM; in the experiment on MOLM14 [4] it was greater than 3.75 µM.

With `FC(F)(F)Cc1cc2c(N3CC[C@@]4(CC[C@@H](NCc5ccccc5)C4)C3)ncnc2s1` (single isomer, unassigned) [Compound 3], the IC50 on menin (location 1, read-out: (2) location 1 Menin HTRF assay (IC50 (nM))) turned out to be 75.7 nM; at menin (setting [5]) it was 10 nM; in the experiment with MV-4-11 [1] (Homo sapiens, MV4-11, 192 h), 0.75 µM; with MOLM14 [2] (Homo sapiens, MOLM-14, 192 h), 2.39 µM.

Take `FC(F)(F)Cc1cc2c(N3CCC4(CCC(Nc5ccccc5)C4)C3)ncnc2s1` (single isomer, unassigned) [Compound 33]: the IC50 at menin (setting [5]) came out at 2050 nM; in the experiment with MV-4-11 [1] (Homo sapiens, MV4-11, 192 h), 5.11 µM; in the experiment with MOLM14 [2] (Homo sapiens, MOLM-14, 192 h), 4.45 µM.

`O=c1[nH]c2ccc(CNC3CCC4(C3)CN(c3ncnc5sc(CC(F)(F)F)cc35)C4)cc2o1` (single isomer, unassigned) [Compound 55]: the half-maximal inhibitory concentration (IC50) on menin (setting [5]) worked out at 7 nM; with MV-4-11 [1] (Homo sapiens, MV4-11, 192 h), 0.28 µM; with MOLM14 [2] (Homo sapiens, MOLM-14, 192 h), 1.27 µM.

Turning to `O=c1[nH]c2cc(CNC3CCC4(C3)CN(c3ncnc5sc(CC(F)(F)F)cc35)C4)ccc2o1` (single isomer, unassigned) [Compound 57], the figures for the IC50 at menin (setting [5]), in the experiment on MV-4-11 [1] and in the experiment on MOLM14 [2] were 3.6 nM, 0.09 µM and 0.44 µM, respectively.

On to `COc1nc(N2CCC3(CC(NCc4ccccc4)C3)C2)c2cc(CC(F)(F)F)sc2n1` (single isomer, unassigned) [Compound 60], for which the IC50 at menin (setting [5]) stood at 23.2 nM; with MV-4-11 [1] (Homo sapiens, MV4-11, 192 h) it was 3.2 µM; in the experiment with MOLM14 [2] (Homo sapiens, MOLM-14, 192 h), 3.46 µM.

With `CNC(=O)c1ccc(NC2CC3(CCN(c4ncnc5sc(CC(F)(F)F)cc45)C3)C2)cc1` (single isomer, unassigned) [Compound 94], the IC50 came out at 3.6 nM at menin (setting [5]), 0.04 µM in the experiment with MV-4-11 [1], 0.06 µM with MV-4-11 [3] and 0.44 µM with MOLM14 [4].

Take `O=c1[nH]c2ccc(CNC3CCC4(C3)CN(c3ncnc5sc(CC(F)(F)F)cc35)C4)cc2[nH]1` (single isomer, unassigned) [Compound 108]: the half-maximal inhibitory concentration (IC50) at menin (setting [5]) is 5.2 nM; in the experiment with MV-4-11 [1], 0.53 µM; in the experiment with MOLM14 [2] (Homo sapiens, MOLM-14, 192 h), greater than 3.75 µM.

As for `FC(F)(F)Cc1cc2c(N3CCC4(CC(Nc5ccccc5)C4)C3)ncnc2s1` (single isomer, unassigned) [Compound 149], the IC50 was 37.5 nM on menin (setting [5]); 3.67 µM in the experiment on MV-4-11 [1] (Homo sapiens, MV4-11, 192 h); greater than 3.75 µM in the experiment with MOLM14 [2] (Homo sapiens, MOLM-14, 192 h).

In the case of `N#CC1(c2ccc(NC3CC4(CCN(c5ncnc6sc(CC(F)(F)F)cc56)C4)C3)cc2)CC1` (single isomer, unassigned) [Compound 172], the IC50 on menin (setting [5]) amounted to 8.4 nM; in the experiment on MV-4-11 [1] (Homo sapiens, MV4-11, 192 h), 0.9 µM; in the experiment with MOLM14 [2] (Homo sapiens, MOLM-14, 192 h), 3.05 µM.
